Results on 36 molecules are retold here after patent US20050197350A1, “Novel quinoline, tetrahydroquinazoline, and pyrimidine derivatives and methods of treatment related to the use thereof” (TAISHO PHARMACEUTICAL CO., LTD., priority 2003, published 2005).

The structures appear in SMILES notation.

The test system of the assay is MCH receptors. In words: MCH receptor activity class (method not given).
Setting [1] is: class by percent of control at 10^-7 M or IC50.
[2] abbreviates: MCH receptor activity class 1-3 (percent of control at 10^-7 M or IC50).

Consider `CN(C)c1ccnc(N[C@H]2CC[C@@H](NC(=S)Nc3cccc4ccccc34)CC2)n1` [compound 2264], for which, under setting [1], the class is on record as 3 (Class 3 The value of percent of control at 10^−7 M was more than 60% or the value of IC50 was more than 200 nM.).
The same measure, in the same setting: the result for `COc1cc(NC(=S)N[C@H]2CC[C@@H](Nc3nccc(N(C)C)n3)CC2)cc(OC)c1OC` [compound 2265, N-(cis-4-{[4-(dimethylamino)pyrimidin-2-yl]amino}cyclohexyl)-N′-(3,4,5-trimethoxyphenyl)thiourea] reads 1 (Class 1: The value of percent of control at 10^−7 M was less than 40% or the value of IC50 was less than 50 nM.).
Turning to `COc1ccc(NC(=S)N[C@H]2CC[C@@H](Nc3nccc(N(C)C)n3)CC2)cc1OC` [compound 2266], under setting [1], the class is recorded as 2 (Class 2: The value of percent of control at 10^−7 M was from 40% to 60% or the value of IC′50 was from 50 nM to 200 nM.).
On the same count and under the same terms, the result for `CN(C)c1ccnc(N[C@H]2CC[C@@H](NC(=S)Nc3ccc(N(C)C)c4ccccc34)CC2)n1` [compound 2267] reads 2 (Class 2: The value of percent of control at 10^−7 M was from 40% to 60% or the value of IC′50 was from 50 nM to 200 nM.).
Same read-out and setting: the result for `CCc1ccccc1NC(=S)N[C@H]1CC[C@@H](Nc2nccc(N(C)C)n2)CC1` [compound 2268] reads 3 (Class 3 The value of percent of control at 10^−7 M was more than 60% or the value of IC50 was more than 200 nM.).
The same measure, in the same setting: the result for `COc1cc([N+](=O)[O-])ccc1NC(=S)N[C@H]1CC[C@@H](Nc2cc(N(C)C)c3ccccc3n2)CC1` [compound 2269] reads 3 (Class 3 The value of percent of control at 10^−7 M was more than 60% or the value of IC50 was more than 200 nM.).
Regarding `COc1ccc(C)cc1NC(=S)N[C@H]1CC[C@@H](Nc2cc(N(C)C)c3ccccc3n2)CC1` [compound 2270], the class under setting [1] is recorded as 3 (Class 3 The value of percent of control at 10^−7 M was more than 60% or the value of IC50 was more than 200 nM.).
Still for that read-out and setting: for `CN(C)c1cc(N[C@H]2CC[C@@H](NC(=S)Nc3ccc(Br)cc3Cl)CC2)nc2ccccc12` [compound 2271] the value was 3 (Class 3 The value of percent of control at 10^−7 M was more than 60% or the value of IC50 was more than 200 nM.); for `CN(C)c1cc(N[C@H]2CC[C@@H](NC(=S)Nc3ccc(I)cc3)CC2)nc2ccccc12` [compound 2272], 3 (Class 3 The value of percent of control at 10^−7 M was more than 60% or the value of IC50 was more than 200 nM.).
Still for that read-out and setting: the result for `CN(C)c1cc(N[C@H]2CC[C@@H](NC(=S)Nc3c(Cl)cc(Cl)cc3Cl)CC2)nc2ccccc12` [compound 2274, N-(cis-4-{[4-(dimethylamino)quinolin-2-yl]amino}cyclohexyl)-N′-(2,4,6-trichlorophenyl)thiourea] reads 2 (Class 2: The value of percent of control at 10^−7 M was from 40% to 60% or the value of IC′50 was from 50 nM to 200 nM.).
The same measure, in the same setting: for `Cc1cc(C)c(NC(=S)N[C@H]2CC[C@@H](Nc3cc(N(C)C)c4ccccc4n3)CC2)c(C)c1` [compound 2275, N-(cis-4-{[4-(dimethylamino)quinolin-2-yl]amino}cyclohexyl)-N′-mesitylthiourea] the value was 1 (Class 1: The value of percent of control at 10^−7 M was less than 40% or the value of IC50 was less than 50 nM.).
As to `Cc1ccc(NC(=S)N[C@H]2CC[C@@H](Nc3cc(N(C)C)c4ccccc4n3)CC2)c(C)c1` [compound 2276], the class under setting [1] is on record as 3 (Class 3 The value of percent of control at 10^−7 M was more than 60% or the value of IC50 was more than 200 nM.).
The same measure, in the same setting: for `CCc1cccc(CC)c1NC(=S)N[C@H]1CC[C@@H](Nc2cc(N(C)C)c3ccccc3n2)CC1` [compound 2277] the value was 1 (Class 1: The value of percent of control at 10^−7 M was less than 40% or the value of IC50 was less than 50 nM.); for `Cc1ccc(NC(=S)N[C@H]2CC[C@@H](Nc3cc(N(C)C)c4ccccc4n3)CC2)c(Br)c1` [compound 2278], 3 (Class 3 The value of percent of control at 10^−7 M was more than 60% or the value of IC50 was more than 200 nM.).
Turning to `CN(C)c1cc(N[C@H]2CC[C@@H](NC(=S)NCc3ccccc3Cl)CC2)nc2ccccc12` [compound 2279], the class under setting [1] is 3 (Class 3 The value of percent of control at 10^−7 M was more than 60% or the value of IC50 was more than 200 nM.).
Turning to `CCc1cccc(C)c1NC(=S)N[C@H]1CC[C@@H](Nc2cc(N(C)C)c3ccccc3n2)CC1` [compound 2280], under setting [1], the class is reported as 3 (Class 3 The value of percent of control at 10^−7 M was more than 60% or the value of IC50 was more than 200 nM.).
Same read-out and setting: for `CC(C)c1ccccc1NC(=S)N[C@H]1CC[C@@H](Nc2cc(N(C)C)c3ccccc3n2)CC1` [compound 2281] the value was 3 (Class 3 The value of percent of control at 10^−7 M was more than 60% or the value of IC50 was more than 200 nM.); for `COC(=O)c1cccc(NC(=S)N[C@H]2CC[C@@H](Nc3cc(N(C)C)c4ccccc4n3)CC2)c1` [compound 2282], 3 (Class 3 The value of percent of control at 10^−7 M was more than 60% or the value of IC50 was more than 200 nM.); for `Cc1cc(Br)cc(C)c1NC(=S)N[C@H]1CC[C@@H](Nc2cc(N(C)C)c3ccccc3n2)CC1` [compound 2283, N-(4-bromo-2,6-dimethylphenyl)-N′-(cis-4-{[4-(dimethylamino)quinolin-2-yl]amino}cyclohexyl)thiourea], 1 (Class 1: The value of percent of control at 10^−7 M was less than 40% or the value of IC50 was less than 50 nM.).
Same read-out and setting: the result for `Cc1cc(Br)ccc1NC(=S)N[C@H]1CC[C@@H](Nc2cc(N(C)C)c3ccccc3n2)CC1` [compound 2284] reads 2 (Class 2: The value of percent of control at 10^−7 M was from 40% to 60% or the value of IC′50 was from 50 nM to 200 nM.).
Same read-out and setting: for `CN(C)c1cc(N[C@H]2CC[C@@H](NC(=S)Nc3ccc(Br)cc3C(F)(F)F)CC2)nc2ccccc12` [compound 2285] the value was 2 (Class 2: The value of percent of control at 10^−7 M was from 40% to 60% or the value of IC′50 was from 50 nM to 200 nM.).
Regarding `Cc1cc(Cl)ccc1NC(=S)N[C@H]1CC[C@@H](Nc2cc(N(C)C)c3ccccc3n2)CC1` [compound 2286], the class under setting [2] is given as 3 (Class 3 The value of percent of control at 10^−7 M was more than 60% or the value of IC50 was more than 200 nM.).
Still for that read-out and setting: for `CN(C)c1cc(N[C@H]2CC[C@@H](NC(=S)NCc3cccc4ccccc34)CC2)nc2ccccc12` [compound 2287] the value was 3 (Class 3 The value of percent of control at 10^−7 M was more than 60% or the value of IC50 was more than 200 nM.).
Same read-out and setting: for `COc1cccc(CNC(=S)N[C@H]2CC[C@@H](Nc3cc(N(C)C)c4ccccc4n3)CC2)c1OC` [compound 2288] the value was 3 (Class 3 The value of percent of control at 10^−7 M was more than 60% or the value of IC50 was more than 200 nM.).
Still for that read-out and setting: for `Cc1cc(C)c(NC(=S)N[C@H]2CC[C@@H](Nc3cc(N(C)C)c4ccccc4n3)CC2)cc1C` [compound 2289] the value was 3 (Class 3 The value of percent of control at 10^−7 M was more than 60% or the value of IC50 was more than 200 nM.).
Turning to `CN(C)c1cc(N[C@H]2CC[C@@H](NC(=S)Nc3ccccc3-c3ccccc3)CC2)nc2ccccc12` [compound 2290], the class under setting [2] is given as 3 (Class 3 The value of percent of control at 10^−7 M was more than 60% or the value of IC50 was more than 200 nM.).
Same read-out and setting: the result for `Cc1cc([N+](=O)[O-])ccc1NC(=S)N[C@H]1CC[C@@H](Nc2cc(N(C)C)c3ccccc3n2)CC1` [compound 2291] reads 3 (Class 3 The value of percent of control at 10^−7 M was more than 60% or the value of IC50 was more than 200 nM.); that for `CN(C)c1cc(N[C@H]2CC[C@@H](NC(=S)NCc3cccc(Cl)c3)CC2)nc2ccccc12` [compound 2292], 3 (Class 3 The value of percent of control at 10^−7 M was more than 60% or the value of IC50 was more than 200 nM.); that for `CCOC(=O)c1cccc(NC(=S)N[C@H]2CC[C@@H](Nc3cc(N(C)C)c4ccccc4n3)CC2)c1` [compound 2293], 3 (Class 3 The value of percent of control at 10^−7 M was more than 60% or the value of IC50 was more than 200 nM.).
Still for that read-out and setting: for `CN(C)c1cc(N[C@H]2CC[C@@H](NC(=S)Nc3ccc(Cl)cc3C(F)(F)F)CC2)nc2ccccc12` [compound 2294] the value was 3 (Class 3 The value of percent of control at 10^−7 M was more than 60% or the value of IC50 was more than 200 nM.); for `Cc1cc(F)ccc1NC(=S)N[C@H]1CC[C@@H](Nc2cc(N(C)C)c3ccccc3n2)CC1` [compound 2295], 3 (Class 3 The value of percent of control at 10^−7 M was more than 60% or the value of IC50 was more than 200 nM.); for `COc1ccc(NC(=S)N[C@H]2CC[C@@H](Nc3cc(N(C)C)c4ccccc4n3)CC2)c(C)c1` [compound 2296], 3 (Class 3 The value of percent of control at 10^−7 M was more than 60% or the value of IC50 was more than 200 nM.).
Still for that read-out and setting: for `COc1cc(OC)c(NC(=S)N[C@H]2CC[C@@H](Nc3cc(N(C)C)c4ccccc4n3)CC2)cc1Cl` [compound 2297, N-(5-chloro-2,4-dimethoxyphenyl)-N′-(cis-4-{[4-(dimethylamino)quinolin-2-yl]amino}cyclohexyl)thiourea] the value was 1 (Class 1: The value of percent of control at 10^−7 M was less than 40% or the value of IC50 was less than 50 nM.).
In the case of `C[C@@H](NC(=S)N[C@H]1CC[C@@H](Nc2cc(N(C)C)c3ccccc3n2)CC1)c1ccccc1` [compound 2298], under setting [2], the class is listed as 3 (Class 3 The value of percent of control at 10^−7 M was more than 60% or the value of IC50 was more than 200 nM.).
Still for that read-out and setting: for `Cc1cccc(NC(=S)N[C@H]2CC[C@@H](Nc3cc(N(C)C)c4ccccc4n3)CC2)c1C` [compound 2299] the value was 3 (Class 3 The value of percent of control at 10^−7 M was more than 60% or the value of IC50 was more than 200 nM.).
Same read-out and setting: for `CN(C)c1cc(N[C@H]2CC[C@@H](NC(=S)Nc3c(F)cc(Br)cc3Br)CC2)nc2ccccc12` [compound 2300, N-(2,4-dibromo-6-fluorophenyl)-N′-(cis-4-{[4-(dimethylamino)quinolin-2-yl]amino}cyclohexyl)thiourea] the value was 2 (Class 2: The value of percent of control at 10^−7 M was from 40% to 60% or the value of IC′50 was from 50 nM to 200 nM.).
